# Results published in patent publication US20220132846A1, “1-PYRIDYL-PYRAZOLYL AMIDE COMPOUNDS AND PREPARATION AND USES THEREOF” (HUNAN RESEARCH INSTITUTE OF CHEMICAL INDUSTRY CO., LTD., priority 2019, published 2022).
# Where two headings read alike, the source gives them in different places.
# Assays:
# Assay type in all cases: in vivo
# [1] = test system: Armyworm (Mythimna separata (Walker)); assay: Test against armyworm, Potter tower method; conditions: for mortality at 12.5 µg/mL / mortality at 50 µg/mL / mortality at 500 µg/mL: Mythimna separata, read-out: Activity (mortality) level against armyworm; for Activity against armyworm, further screening (in words): compared with chlorantraniliprole (D1)
# Method: Potter tower method: the test compound was dissolved in an appropriate solvent such as N,N-dimethylformamide, and then diluted with 0.2% aqueous solution of Tween 80 to the desired concentration, Those without the test compounds were set as blank controls. The fresh and tender corn leaves were taken and cut into fragments of basically the same size, then put into a Petri dish (diameter 90 mm) padded with filter paper in advance. Ten third-instar larvae of test insects were transferred into the dish and then placed under the Potter spray tower for being sprayed, each concentration treatment was sprayed at the amount of 1 mL and replicated 3 times. The dish was covered and then placed in a chamber for culture and observed regularly, after 72 hours, the dead insects was investigated and recorded and the mean mortality was calculated. […]
# [2] = test system: Spodoptera litura (Fabricius); assay: Test against Spodoptera litura, leaf disc dip; conditions: after 72 hours; for Median lethal concentration LC50 against Spodoptera litura, compared with D1: same conditions; for Activity against Spodoptera litura (in words): second-instar larvae
# Method: (§1) The test compound was dissolved in an appropriate solvent such as N,N-dimethylformamide, and then diluted with 0.2% aqueous solution of Tween 80 to the desired concentration, Those without the test compounds were set as blank controls, the treatments were replicated 3 times. The cabbage leaves were perforated to get 18 mm diameter leaf discs by a hole puncher, 5 leaf discs were dipped in the test solution for 10 seconds and then put into a Petri dish (diameter 90 mm) padded with moisturizing filter paper, after air-drying, the leaf discs were infested with no less than ten second-instar larvae of test insects which were starved for 4 hours, and then the dish was covered and placed in a chamber for culture. After 72 hours, the number of dead insects was investigated, the mortality was calculated, and the regression equation, correlation coefficient (r) and the median lethal concentration (LC50) were obtained using Probit analysis method.
# [3] = test system: Diamondback moth (Plutella xylostella (Linnaeus)); assay: Test against diamondback moth, leaf disc dip; conditions: after 72 hours; for LC50: Plutella xylostella, foliar, read-out: Lethal medium concentration LC50 against diamondback moth; for Activity against diamondback moth (in words): second-instar larvae
# Method: as §1
# [4] = test system: Aphis fabae; assay: Test against aphid, leaf dip method (Aphis fabae); conditions: foliar; for mortality at 12.5 µg/mL / mortality at 50 µg/mL / mortality at 200 µg/mL / mortality at 500 µg/mL: read-out: Activity (mortality) level against Aphis fabae; for LC50: read-out: LC50 against Aphis fabae
# Method: For evaluating the activity of the compounds of this invention against Homoptera pests, Aphis fabae, wheat aphids, etc. were selected as the test insects, and the activity of the compounds of this invention against aphids was measured by leaf dip method indoors.
# Leaf dip method (Aphis fabae): the test compound was dissolved in an appropriate solvent such as N,N-dimethylformamide, and then diluted with 0.2% aqueous solution of Tween 80 to the desired concentration, Those without the test compounds were set as blank controls, the treatments were replicated 3 times. Horsebean seedlings with no less than twenty 3-day-old Aphis fabae per plant was cut from the stem, 5 horsebean seedlings with the insects were dipped in the test solution for 5 seconds, then inserted into a sponge filled with water after sucked dry using filter paper, then covered with a glass tube and placed in a chamber for culture. After 24 hours, the number of living and dead insects were investigated and the results were averaged. […]
# [5] = 12.5 mg/L, third-instar larvae, after 72 hours
# [6] = 50 mg/L, third-instar larvae, after 72 hours
# [7] = 500 mg/L, third-instar larvae, after 72 hours
smiles,measurement,setting,value
"CNC(=O)c1cc(Cl)cc(Cl)c1N(C)C(=O)c1cc(Br)nn1-c1ncccc1Cl [Compound 1, N-[2,4-dichloro-6-[(methylamino)carbonyl]phenyl]-N-methyl-1-(3-chloro-2-pyridinyl)-3-bromo-1H-pyrazole-5-carboxamide]",Activity against armyworm,[1]; 1.25 mg/L,75%
same,mortality at 12.5 µg/mL,[1]; [5],90 to 100%
same,mortality at 50 µg/mL,[1]; [6],90 to 100%
same,mortality at 500 µg/mL,[1]; [7],90 to 100%
same,"Activity against armyworm, further screening (in words)",[1],excellent activity
same,"Median lethal concentration LC50 against Spodoptera litura, compared with D1",[2],lower than that of chlorantraniliprole (D1)
same,Activity against Spodoptera litura (in words),[2],high activity at very low concentration
same,LC50,[3],< 1 µg/mL
same,Activity against diamondback moth (in words),[3],high activity at very low concentration
same,mortality at 12.5 µg/mL,"[4]; 12.5 mg/L, after 24 hours",90 to 100%
same,mortality at 50 µg/mL,"[4]; 50 mg/L, after 24 hours",90 to 100%
same,mortality at 200 µg/mL,"[4]; 200 mg/L, after 24 hours",90 to 100%
same,mortality at 500 µg/mL,"[4]; 500 mg/L, after 24 hours",90 to 100%
same,LC50,[4]; further test,< 1 µg/mL
"CCNC(=O)c1cc(Cl)cc(Cl)c1N(C)C(=O)c1cc(Br)nn1-c1ncccc1Cl [Compound 2, N-[2,4-dichloro-6-[(ethylamino)carbonyl]phenyl]-N-methyl-1-(3-chloro-2-pyridinyl)-3-bromo-1H-pyrazole-5-carboxamide]",mortality at 12.5 µg/mL,[1]; [5],90 to 100%
same,mortality at 50 µg/mL,[1]; [6],90 to 100%
same,mortality at 500 µg/mL,[1]; [7],90 to 100%
same,"Activity against armyworm, further screening (in words)",[1],excellent activity
same,"Median lethal concentration LC50 against Spodoptera litura, compared with D1",[2],lower than that of chlorantraniliprole (D1)
same,Activity against Spodoptera litura (in words),[2],high activity at very low concentration
same,LC50,[3],< 1 µg/mL
same,Activity against diamondback moth (in words),[3],high activity at very low concentration
same,mortality at 12.5 µg/mL,"[4]; 12.5 mg/L, after 24 hours",90 to 100%
same,mortality at 50 µg/mL,"[4]; 50 mg/L, after 24 hours",90 to 100%
same,mortality at 200 µg/mL,"[4]; 200 mg/L, after 24 hours",90 to 100%
same,mortality at 500 µg/mL,"[4]; 500 mg/L, after 24 hours",90 to 100%
same,LC50,[4]; further test,< 1 µg/mL
"CCCN(C(=O)c1cc(Br)nn1-c1ncccc1Cl)c1c(Br)cc(Cl)cc1C(=O)N(C)C [Compound 41, N-[2-bromo-4-chloro-6-[(dimethylamino)carbonyl]phenyl]-N-propyl-1-(3-chloro-2-pyridinyl)-3-bromo-1H-pyrazole-5-carboxamide]",mortality at 50 µg/mL,[1]; [6],90 to 100%
same,mortality at 500 µg/mL,[1]; [7],90 to 100%
same,mortality at 12.5 µg/mL,"[4]; 12.5 mg/L, after 24 hours",90 to 100%
same,mortality at 50 µg/mL,"[4]; 50 mg/L, after 24 hours",90 to 100%
same,mortality at 200 µg/mL,"[4]; 200 mg/L, after 24 hours",90 to 100%
same,mortality at 500 µg/mL,"[4]; 500 mg/L, after 24 hours",90 to 100%
"CNC(=O)c1cc(Cl)cc(C)c1N(C)C(=O)c1cc(Br)nn1-c1ncccc1Cl [Compound 42, N-[2-methyl-4-chloro-6-[(methylamino)carbonyl]phenyl]-N-methyl-1-(3-chloro-2-pyridinyl)-3-bromo-1H-pyrazole-5-carboxamide]",mortality at 12.5 µg/mL,[1]; [5],90 to 100%
same,mortality at 50 µg/mL,[1]; [6],90 to 100%
same,mortality at 500 µg/mL,[1]; [7],90 to 100%
same,mortality at 12.5 µg/mL,"[4]; 12.5 mg/L, after 24 hours",90 to 100%
same,mortality at 50 µg/mL,"[4]; 50 mg/L, after 24 hours",90 to 100%
same,mortality at 200 µg/mL,"[4]; 200 mg/L, after 24 hours",90 to 100%
same,mortality at 500 µg/mL,"[4]; 500 mg/L, after 24 hours",90 to 100%
"CCNC(=O)c1cc(Cl)cc(C)c1N(C)C(=O)c1cc(Br)nn1-c1ncccc1Cl [Compound 43, N-[2-methyl-4-chloro-6-[(ethylamino)carbonyl]phenyl]-N-methyl-1-(3-chloro-2-pyridinyl)-3-bromo-1H-pyrazole-5-carboxamide]",mortality at 50 µg/mL,[1]; [6],90 to 100%
same,mortality at 500 µg/mL,[1]; [7],90 to 100%
same,mortality at 500 µg/mL,"[4]; 500 mg/L, after 24 hours",90 to 100%
"Cc1cc(Cl)cc(C(=O)N(C)C)c1N(C)C(=O)c1cc(Br)nn1-c1ncccc1Cl [Compound 44, N-[2-methyl-4-chloro-6-[(dimethylamino)carbonyl]phenyl]-N-methyl-1-(3-chloro-2-pyridinyl)-3-bromo-1H-pyrazole-5-carboxamide]",mortality at 50 µg/mL,[1]; [6],90 to 100%
same,mortality at 500 µg/mL,[1]; [7],90 to 100%
same,mortality at 500 µg/mL,"[4]; 500 mg/L, after 24 hours",90 to 100%
"CCN(C)C(=O)c1cc(Cl)cc(C)c1N(C)C(=O)c1cc(Br)nn1-c1ncccc1Cl [Compound 45, N-[2-methyl-4-chloro-6-[(methyl(ethyl)amino)carbonyl]phenyl]-N-methyl-1-(3-chloro-2-pyridinyl)-3-bromo-1H-pyrazole-5-carboxamide]",mortality at 500 µg/mL,[1]; [7],90 to 100%
same,mortality at 500 µg/mL,"[4]; 500 mg/L, after 24 hours",90 to 100%
"CCCN(C)C(=O)c1cc(Cl)cc(C)c1N(C)C(=O)c1cc(Br)nn1-c1ncccc1Cl [Compound 46, N-[2-methyl-4-chloro-6-[(methyl(propyl)amino)carbonyl]phenyl]-N-methyl-1-(3-chloro-2-pyridinyl)-3-bromo-1H-pyrazole-5-carboxamide]",mortality at 50 µg/mL,[1]; [6],90 to 100%
same,mortality at 500 µg/mL,[1]; [7],90 to 100%
same,mortality at 200 µg/mL,"[4]; 200 mg/L, after 24 hours",90 to 100%
same,mortality at 500 µg/mL,"[4]; 500 mg/L, after 24 hours",90 to 100%
"Cc1cc(Cl)cc(C(=S)N(C)C)c1N(C)C(=O)c1cc(Br)nn1-c1ncccc1Cl [Compound 47, N-[2-methyl-4-chloro-6-[(dimethylamino)thioxomethyl]phenyl]-N-methyl-1-(3-chloro-2-pyridinyl)-3-bromo-1H-pyrazole-5-carboxamide]",mortality at 50 µg/mL,[1]; [6],90 to 100%
same,mortality at 500 µg/mL,[1]; [7],90 to 100%
same,mortality at 12.5 µg/mL,"[4]; 12.5 mg/L, after 24 hours",90 to 100%
same,mortality at 50 µg/mL,"[4]; 50 mg/L, after 24 hours",90 to 100%
same,mortality at 200 µg/mL,"[4]; 200 mg/L, after 24 hours",90 to 100%
same,mortality at 500 µg/mL,"[4]; 500 mg/L, after 24 hours",90 to 100%
"CCN(CC)C(=O)c1cc(Br)cc(C)c1N(C)C(=O)c1cc(Br)nn1-c1ncccc1Cl [Compound 48, N-[2-methyl-4-bromo-6-[(diethylamino)carbonyl]phenyl]-N-methyl-1-(3-chloro-2-pyridinyl)-3-bromo-1H-pyrazole-5-carboxamide]",mortality at 50 µg/mL,[1]; [6],90 to 100%
same,mortality at 500 µg/mL,[1]; [7],90 to 100%
same,mortality at 500 µg/mL,"[4]; 500 mg/L, after 24 hours",90 to 100%
"CCN(CC)C(=O)c1cc(Br)cc(C)c1N(CC)C(=O)c1cc(Br)nn1-c1ncccc1Cl [Compound 49, N-[2-methyl-4-bromo-6-[(diethylamino)carbonyl]phenyl]-N-ethyl-1-(3-chloro-2-pyridinyl)-3-bromo-1H-pyrazole-5-carboxamide]",mortality at 50 µg/mL,[1]; [6],90 to 100%
same,mortality at 500 µg/mL,[1]; [7],90 to 100%
same,mortality at 200 µg/mL,"[4]; 200 mg/L, after 24 hours",90 to 100%
same,mortality at 500 µg/mL,"[4]; 500 mg/L, after 24 hours",90 to 100%
"CNC(=O)c1cc(C#N)cc(C)c1NC(=O)c1cc(Br)nn1-c1ncccc1Cl [Compound D2, cyantraniliprole, reference compound]",mortality at 12.5 µg/mL,[1]; 72 h,90 to 100%
same,mortality at 50 µg/mL,[1]; 72 h,90 to 100%
same,mortality at 500 µg/mL,[1]; 72 h,90 to 100%
same,mortality at 12.5 µg/mL,[4]; 24 h,90 to 100%
same,mortality at 50 µg/mL,[4]; 24 h,90 to 100%
same,mortality at 200 µg/mL,[4]; 24 h,90 to 100%
same,mortality at 500 µg/mL,[4]; 24 h,90 to 100%
same,LC50,[4],> 1 µg/mL
"CC(NC(=O)c1cc(Cl)cc(Br)c1NC(=O)c1cc(Br)nn1-c1ncccc1Cl)C1CC1 (stereo not drawn) [Compound D3, cyclaniliprole, reference compound]",mortality at 12.5 µg/mL,[1]; 72 h,70 to 90%
same,mortality at 50 µg/mL,[1]; 72 h,90 to 100%
same,mortality at 500 µg/mL,[1]; 72 h,90 to 100%
same,mortality at 12.5 µg/mL,[4]; 24 h,90 to 100%
same,mortality at 50 µg/mL,[4]; 24 h,90 to 100%
same,mortality at 200 µg/mL,[4]; 24 h,90 to 100%
same,mortality at 500 µg/mL,[4]; 24 h,90 to 100%
same,LC50,[4],> 1 µg/mL
